Data published in patent US20240158413A1, “FUSED POLYCYCLIC SUBSTITUTED 5-CARBOXYLIC ACID THIENOPYRIMIDINE DIONE COMPOUND AND USE THEREOF” (SOTER BIOPHARMA PTE. LTD., priority 2021, published 2024).

How the values were obtained:
[1] = target: human gonadotropin-releasing hormone receptor (Homo sapiens (Human), UniProt P30968); assay: FLIPR calcium flow assay of inhibitory activity on gonadotropin-releasing hormone receptor in GnRH/HEK293 cells; type: cell-based; conditions: Ca2+ flow, agonist Leuprolide acetate, read-out: IC50 on inhibiting the activity of human gonadotropin-releasing hormone receptor
Chain of human gonadotropin-releasing hormone receptor (P30968 whole entry): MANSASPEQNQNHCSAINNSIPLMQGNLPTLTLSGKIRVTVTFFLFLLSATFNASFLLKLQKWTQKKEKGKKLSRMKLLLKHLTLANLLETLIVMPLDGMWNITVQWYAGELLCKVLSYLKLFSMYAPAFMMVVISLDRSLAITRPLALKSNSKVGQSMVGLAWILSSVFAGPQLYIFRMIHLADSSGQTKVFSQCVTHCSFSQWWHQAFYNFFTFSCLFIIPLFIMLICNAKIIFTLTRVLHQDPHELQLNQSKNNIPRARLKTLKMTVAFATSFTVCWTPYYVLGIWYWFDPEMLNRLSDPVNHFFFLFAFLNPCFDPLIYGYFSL
Experimental: Objective of assay: to detect the inhibitory activity of assay compounds on gonadotropin-releasing hormone receptor at the cellular level using FLIPR detection technology.
GnRH/HEK293 (human embryonic kidney cell 293) cultured cells in the logarithmic growth phase were washed with DPBS (Dulbecco's phosphate buffered saline) buffer, and an appropriate amount of 0.05% EDTA (ethylenediaminetetraacetic acid)-trypsin was added. The cells were placed in a carbon dioxide incubator at 37° C. for digestion for 1-2 minutes, and then removed from the incubator. A medium was added to the cells to terminate the digestion. Cells were dispersed by repeated pipetting and harvested by centrifugation. […]
On the next day, 20 μL, of 2×Fluo-4Direct™ buffer was added to each well, and the plate was incubated in a 5% CO2, 37° C. incubator for 50 minutes. […] The fluorescence signal was read. Then 10 μL of the reference compound as an agonist was added, and the fluorescent signal was read. EC50 was calculated, and the agonist with a concentration of 6×EC50 was prepared.
2 mM assay compounds and an appropriate concentration of reference compound were serially diluted 4-fold to 10 concentrations in ECHO, and 900 nL of that was transferred to a compound plate. […] The fluorescent signal was read. Then 10 μL of agonist with a concentration of 6×EC50 was added to the cell plate and the fluorescent signal was read. […]

[2] = tested on: endometriotic lesion in mice; assay: In vivo efficacy evaluation in a mouse model of endometriosis
Source text: Objective of assay: To evaluate the efficacy of the compound of the present disclosure in a mouse model of endometriosis.
Animal estrous cycle detection in 8-week-old C57BL6/J female mice: Through vaginal smear observation, mice that met the specific estrous cycle on the day of the assay were selected according to the actual smear results because the entire estrous cycle was about 4 days. Modeling: The uterine horns of donor mice in an estrous cycle were excised, and opened longitudinally. The excised biopsies were cut to a size of 2×2 mm. Recipient mice were anesthetized with isoflurane gas, and a 1 cm incision was made along the midline to expose the abdominal cavity. Endometriotic mice: four uterine fragments of donors were sutured to the peritoneal wall of mice in an estrous cycle; sham-operated mice: abdominal fat fragments of similar size were sutured. The grafted tissue as well as the abdominal muscle and skin were sutured using 8-0 black silk thread. Sham group (sham-operation group): the abdominal cavity of each mouse in the Sham group was opened to transplant fat fragments, and the rest of the steps were the same.
After 4 weeks of modelmg, a second laparotomy was performed, and the ectopic lesion volume (V1) was measured using a vernier caliper and calculated to determine the success of the modeling. Twelve mice with relatively uniform V1 were selected and divided into 2 groups with 6 nice in each group: Vehicle (vehicle control group) and drug group.
Sham group (sham-operation group, 6 animals): normal feeding; Vehicle group (vehicle control group, 6 animals); vehicle was intragastrically administered once a day for 8 consecutive weeks. […]
After 8 weeks of administration, samples were obtained from the mice: the ectopic lesion volume (V2) was measured using a vernier caliper and calculated. The inhibition rate was calculated using a calculation formula of: ectopic lesion volume V=π/6×length×width×height, wherein length represents the length of an ectopic lesion, width represents the width of an ectopic lesion, and height represents the height of an ectopic lesion;

[3] = Pharmacokinetic evaluation in mice (plasma); type: in vivo; conditions: mouse, male CD-1 mice
Experimental: Objective of assay: To study the in vivo pharmacokinetic properties of the compound of the present disclosure in mice.
Each assay compound was mixed with DMAC respectively, and vortexed for 2 minutes. The solution of the assay compound in DMAC was mixed and vortexed for 2 minutes to prepare a clear solution of 10 mg/mL. 0.0600 mL of 10 mg/mL solution was added to 0.300 mL of Solutol, and the mixture was vortexed for 2 minutes. Then 2.400 mL of normal saline was added, and the mixture was vortexed for 2 minutes to obtain a clear solution of 0.2 mg/mL, which was used for administration in PO group, 0.500 mL of the solution for administration in PO group was vortexed for 2 minutes, and 0.0500 mL of DMAC was added. The mixture was vortexed for 2 minutes, and then 0.0500 mL of solutol was added. The mixture was vortexed for 2 minutes, and finally 0.400 mL of normal saline was added. The mixture was vortexed for two minutes to give a clear solution of 0.1 mg/mL, which was filtered through a microporous membrane to give a solution for administration in injection (IV) group.
Four male CD-1 mice were divided into two groups. The animals in the first group were administered intravenously once at a dose of 0.5 mg/kg, wherein the vehicle was 10% DMAC/10% Solutol/80% normal saline, and the administration volume was 5 mL/kg. The animals in the second group were administered orally 2 mg/kg of the assay compound by oral gavage, wherein the oral vehicle was 10% DMAC/10% Solutol/80% normal saline, and the oral volume was 10 mL/kg. Whole blood was collected at 0.033 (IV injection only), 0.083, 0.25, 0.5, 1, 2, 4 and 12 hours post-dose. The whole blood was centrifuged at 3200 g at 2-8° C. for 10 min to obtain plasma. The concentration of the assay compound in plasma was determined by ILC/MS/MS method, and the pharmacokinetic parameters were calculated by Phoenix WinNonlin software.
The parameters have the following meanings: IV: intravenous injection; PO: oral administration; C0: initial plasma drug concentration; Cmax: maximum drug concentration in systemic circulation; Tmax: time required to reach Cmax; T1/2: half-life; Vdss: apparent volume of distribution; Cl: clearance rate; AUC0-last: area under the drug-time curve.

## O=C(O)c1scc2[nH]c(=O)n(-c3cc4c(cc3F)OCCCOc3ccc(F)c(F)c3CO4)c(=O)c12 [Compound 1]
[1]
  IC50: 3.2 nM
[2]; Mean ± SD, n = 6, 4 weeks after modeling, before administration (baseline)
  Volume of endometriotic lesion in mice V1: 9.89 ± 1.51 mm^3
[2]; Mean ± SD, n = 6, after 8 weeks of 100 mpk intragastric once daily
  Volume of endometriotic lesion in mice V2: 6.78 ± 4.46 mm^3
[2]; ectopic lesion volume, 100 mpk intragastric once daily for 8 weeks
  Inhibition rate: 107.5%
[3]; IV 0.5 mg/kg
  AUC(0-t): 48.3 µM·h
  C0: 13.5 µM
  clearance: 0.332 mL/min/kg
  half-life: 5.66 h
[3]; IV 0.5 mg/kg, read-out: Vdss
  Vd: 0.159 L/kg
[3]; PO 2 mg/kg vs IV 0.5 mg/kg
  bioavailability: 95.3%
[3]; PO 2 mg/kg
  AUC(0-t): 143 µM·h
  Cmax: 25.8 µM
  Tmax: 0.5 h
  half-life: 5.03 h
